Entries after “also recorded” stand apart in the source; their conditions may differ.
How the values were obtained:
[1] = Visual assessment of CBDA solubility in overlay oils; type: physicochemical; settings: CBDA as hemp oil with 50% CBDA, target concentration greater than 50 g/L
Description: Visual appearances of solutions containing CBDA (as hemp oil with 50% CBDA) were assessed for JARCOL™ I-16, soybean oil, castor oil, ESTEREX™ A 51, sunflower oil, DRAKEOL® 19, and DURASYN® 164. A target CBD concentration of greater than 50 g/L was desired for this set of experiments. Upon visual inspection, it was determined that CBDA was soluble in JARCOL™ I-16, soybean oil, castor oil, ESTEREX™ A 51, and sunflower oil, but was insoluble in DRAKEOL® 19 and DURASYN® 164 at the target concentration. Insolubility was evidenced by the presence of precipitates in solutions of DRAKEOL® 19 or DURASYN® 164 (FIG. 9).

[2] = Solubility of hexanoate in soybean oil by gas chromatography (GC-FID); settings: oil or lipid
[3] = tested on: wild-type yeast (strain Y46850); experiment: Growth of wild-type yeast in culture media containing an overlay oil (optical density); type: cell-based, S. cerevisiae
Description: The ability of yeast cells (S. cerevisiae) to grow normally in culture media containing an overlay oil was assessed. Wild-type yeast (strain Y46850) was cultured in the presence of soybean oil, sunflower oil, safflower oil, castor oil, or JARCOL™ I-16. Cell growth was measured by assessing the optical density (OD) of the yeast culture suspensions in three independent experiments (SF1, SF2, and SF3) (FIGS. 1-3).

[4] = oil/hemp oil 10:1 v/v, visual inspection
[5] = oil/hemp oil 10:1 v/v, visual inspection (precipitates)

C=C(C)[C@@H]1CCC(C)=C[C@H]1c1c(O)cc(CCCCC)c(C(=O)O)c1O [CBDA, cannabidiolic acid]
Solubility of CBDA in JARCOL I-16 [1, 4]: soluble; also recorded: good solubility
Solubility of CBDA in castor oil [1, 4]: soluble; also recorded: good solubility
Solubility of CBDA in soybean oil [1, 4]: soluble; also recorded: good solubility
Solubility of CBDA in DRAKEOL 19 [1, 5]: insoluble; also recorded: lower solubility
Solubility of CBDA in DURASYN 164 [1, 5]: insoluble; also recorded: lower solubility
Solubility of CBDA in ESTEREX A 51 ([1]; visual inspection): soluble
Solubility of CBDA in sunflower oil ([1]; visual inspection): soluble

CCCCCC(=O)O [hexanoate]
solubility [2]: ≤ 185 mg/mL

CCCCCCCCC(CO)CCCCCC (centres unmarked) [JARCOL™ I-16]
Cell growth (optical density) versus control (no oil) ([3]; flask experiment SF2, strain Y46850 (FIG. 2)): not significantly different
Cell growth (optical density) versus control (no oil) ([3]; flask experiment SF3, strain Y46850 (FIG. 3)): not significantly different
Cell growth (optical density) versus control (no oil) ([3]; wild-type yeast strain Y46850 cultured with overlay oil, three independent experiments SF1, SF2, SF3): not significantly different

Reference: patent US20240368640A1, “METHODS OF PURIFYING CANNABINOIDS” (AMYRIS, INC., priority 2021, published 2024)
